Measured values: patent US8703107B2, “Cosmetic composition including leucodopachrome derivative” (Chanel Parfums Beaute, priority 2009, dated 2014)

System: Hyperpigmented melanocytes derived from normal neonatal prepuce
Experiment: Effect on melanin synthesis in cultured hyperpigmented melanocytes (melanin content read at 490 nm)
Assay type: cell-based
Description: 3 solutions of methyl ester of triacetyl leucodopachrome were prepared, respectively at concentrations of 0.0025%, 0.00025% and 0.000025% by weight in DMSO.
The effect of the methyl ester of (S)-triacetyl leucodopachrome on melanin synthesis was evaluated according to the following procedure.
Hyperpigmented melanocytes derived from normal neonatal prepuce of separate donors were bought from the company Cascade Biologics (Portland, Oreg., United States). The cells were seeded in 6-well plates and cultured in a growth medium of the melanocytes (medium topped up with bovine pituitary extract, fetal bovine serum, bovine insulin, transferrin, conventional fibroblast growth factor, hydrocortisone, heparin and phorbol 12-myristate 13-acetate).
In a second stage, the cells were incubated with a growth medium (MGM, Clonetics) containing the active products, in three copies, for 5 days. The medium was withdrawn and the cells washed with PBS (Gibco/Invitrogen). The cells were lyzed and the melanin solubilized in NaOH.
The supernatant was centrifuged. After centrifugation, the clear lysate was transferred to a new plate and the melanin content was measured on an ELISA reader at 490 nm. The pellets were visualized on an Alphalnnotech imager.

Question: Which results are given for `COC(=O)[C@@H]1Cc2cc(OC(C)=O)c(OC(C)=O)cc2N1C(C)=O` [methyl ester of (S)-triacetyl leucodopachrome]?
Answer: inhibition of the melanin synthesis (in words) (0.000025% to 0.0025% solutions): increases with the concentration; inhibition at 2.5e-05 % strength (Melanocyte, 120 h, 0.000025% by weight solution in DMSO, 5 days incubation, melanin at 490 nm): 5.49%; inhibition at 0.00025 % strength (Melanocyte, 120 h, 0.00025% by weight solution in DMSO, 5 days incubation, melanin at 490 nm): 6.7%; inhibition at 0.0025 % strength (Melanocyte, 120 h, 0.0025% by weight solution in DMSO, 5 days incubation, melanin at 490 nm): 32.8%
